Results reported in ChEMBL document CHEMBL4052776, “Discovery of 3-morpholino-imidazole[1,5-a]pyrazine BTK inhibitors for rheumatoid arthritis” (Bioorg Med Chem Lett, 2017).
pIC50: −log10 of the molar value.

Columns and labels:
[1] = Half life in dog at 2 mg/kg administered as cassette dose; type: ADME, organism-based, Canis lupus familiaris; conditions: in vivo
[2] = target: Tyrosine-protein kinase Lck (Homo sapiens, UniProt P06239); assay: Inhibition of LCK (unknown origin)
[3] = target: T1, Tyrosine-protein kinase BTK (Homo sapiens, UniProt Q06187); assay: Inhibition of BTK in human PBMC assessed as reduction in anti-IgM-induced MIP1beta
[4] = target: Tyrosine-protein kinase CSK (Homo sapiens, UniProt P41240); assay: Inhibition of CSK (unknown origin)
Homo sapiens [5] = species: Homo sapiens; assay: Selectivity ratio of IC50 for TXK (unknown origin) to IC50 for BTK (unknown origin)
[6] = target: Proto-oncogene tyrosine-protein kinase Src (Homo sapiens, UniProt P12931); assay: Inhibition of SRC (unknown origin)
[7] = target: Tyrosine-protein kinase Srms (Homo sapiens, UniProt Q9H3Y6); assay: Inhibition of SRMS (unknown origin)
[8] = target: Tyrosine-protein kinase Blk (Homo sapiens, UniProt P51451); assay: Inhibition of BLK (unknown origin)
[9] = Oral bioavailability in rat at 10 mg/kg; type: ADME, organism-based; conditions: in vivo
[10] = Total clearance in rat plasma at 10 mg/kg; type: ADME, organism-based
[11] = target: Voltage-gated inwardly rectifying potassium channel KCNH2 (Homo sapiens, UniProt Q12809); assay: Inhibition of human ERG by [35S]-MK499 displacement or iKr channel assay
[12] = target: Protein-tyrosine kinase 6 (Homo sapiens, UniProt Q13882); assay: Inhibition of PTK6 (unknown origin)
Homo sapiens [13] = species: Homo sapiens; assay: Selectivity ratio of IC50 for CSK (unknown origin) to IC50 for BTK (unknown origin)
[14] = Half life in rat at 10 mg/kg; type: ADME, organism-based; conditions: in vivo
Homo sapiens [15] = species: Homo sapiens; assay: Selectivity ratio of IC50 for TEC (unknown origin) to IC50 for BTK (unknown origin)
[16] = target: T2, Tyrosine-protein kinase TXK (Homo sapiens, UniProt P42681); assay: Inhibition of TXK (unknown origin)
T2 sequence (P42681 whole entry): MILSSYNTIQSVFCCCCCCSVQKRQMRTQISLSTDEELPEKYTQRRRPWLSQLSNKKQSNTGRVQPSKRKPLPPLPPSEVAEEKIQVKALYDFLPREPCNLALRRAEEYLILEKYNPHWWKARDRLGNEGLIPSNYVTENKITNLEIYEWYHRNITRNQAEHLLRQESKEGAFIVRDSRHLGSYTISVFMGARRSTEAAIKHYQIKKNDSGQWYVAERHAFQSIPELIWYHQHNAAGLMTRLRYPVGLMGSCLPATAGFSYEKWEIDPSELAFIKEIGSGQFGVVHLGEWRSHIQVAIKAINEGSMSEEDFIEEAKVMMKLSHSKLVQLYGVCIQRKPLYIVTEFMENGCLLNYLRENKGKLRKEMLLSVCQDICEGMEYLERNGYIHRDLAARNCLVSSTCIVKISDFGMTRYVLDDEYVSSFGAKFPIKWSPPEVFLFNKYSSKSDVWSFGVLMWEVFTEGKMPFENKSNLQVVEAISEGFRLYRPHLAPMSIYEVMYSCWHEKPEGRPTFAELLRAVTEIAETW

[17] = target: T3, Cytoplasmic tyrosine-protein kinase BMX (Homo sapiens, UniProt P51813); assay: Inhibition of BMX (unknown origin)
T3 sequence (P51813 whole entry): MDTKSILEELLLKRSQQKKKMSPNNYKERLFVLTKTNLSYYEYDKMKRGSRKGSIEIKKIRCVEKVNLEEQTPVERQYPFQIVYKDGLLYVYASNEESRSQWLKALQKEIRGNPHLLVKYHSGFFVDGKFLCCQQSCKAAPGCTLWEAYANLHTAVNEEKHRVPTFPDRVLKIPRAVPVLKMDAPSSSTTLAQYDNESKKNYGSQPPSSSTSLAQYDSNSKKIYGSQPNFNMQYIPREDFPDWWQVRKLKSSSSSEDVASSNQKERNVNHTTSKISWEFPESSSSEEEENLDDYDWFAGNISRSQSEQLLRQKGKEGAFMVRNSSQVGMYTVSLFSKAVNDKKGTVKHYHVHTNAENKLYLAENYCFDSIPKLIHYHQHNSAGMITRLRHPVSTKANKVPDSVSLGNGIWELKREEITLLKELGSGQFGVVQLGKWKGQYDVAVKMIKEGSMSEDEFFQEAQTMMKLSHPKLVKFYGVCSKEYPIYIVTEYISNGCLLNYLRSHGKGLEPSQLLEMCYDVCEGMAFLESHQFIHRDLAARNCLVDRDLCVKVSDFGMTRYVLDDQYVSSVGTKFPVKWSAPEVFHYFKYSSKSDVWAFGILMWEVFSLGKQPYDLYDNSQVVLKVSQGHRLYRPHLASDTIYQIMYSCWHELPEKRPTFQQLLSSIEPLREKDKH

Homo sapiens [18] = species: Homo sapiens; assay: Selectivity ratio of IC50 for BLK (unknown origin) to IC50 for BTK (unknown origin)
Homo sapiens [19] = species: Homo sapiens; assay: Selectivity ratio of IC50 for FRK (unknown origin) to IC50 for BTK (unknown origin)
[20] = target: Tyrosine-protein kinase FRK (Homo sapiens, UniProt P42685); assay: Inhibition of FRK (unknown origin)
Homo sapiens [21] = species: Homo sapiens; assay: Selectivity ratio of IC50 for FYN (unknown origin) to IC50 for BTK (unknown origin)
[22] = target: Tyrosine-protein kinase Fgr (Homo sapiens, UniProt P09769); assay: Inhibition of FGR (unknown origin)
Homo sapiens [23] = species: Homo sapiens; assay: Selectivity ratio of IC50 for LCK (unknown origin) to IC50 for BTK (unknown origin)
[24] = target: Tyrosine-protein kinase Lyn (Homo sapiens, UniProt P07948); assay: Inhibition of LYNB (unknown origin)
[25] = target: T1, Tyrosine-protein kinase BTK; assay: Inhibition of recombinant full-length His6-tagged BTK (unknown origin) expressed in baculovirus infected Sf9 cells using biotinylated A5 peptide as substrate preincubated for 60 mins followed by substrate addition measured after 120 mins by LANCE TR-FRET assay
Homo sapiens [26] = species: Homo sapiens; assay: Selectivity ratio of IC50 for BMX (unknown origin) to IC50 for BTK (unknown origin)
[27] = target: T4, Tyrosine-protein kinase Tec (Homo sapiens, UniProt P42680); assay: Inhibition of TEC (unknown origin)
T4 sequence (P42680 whole entry): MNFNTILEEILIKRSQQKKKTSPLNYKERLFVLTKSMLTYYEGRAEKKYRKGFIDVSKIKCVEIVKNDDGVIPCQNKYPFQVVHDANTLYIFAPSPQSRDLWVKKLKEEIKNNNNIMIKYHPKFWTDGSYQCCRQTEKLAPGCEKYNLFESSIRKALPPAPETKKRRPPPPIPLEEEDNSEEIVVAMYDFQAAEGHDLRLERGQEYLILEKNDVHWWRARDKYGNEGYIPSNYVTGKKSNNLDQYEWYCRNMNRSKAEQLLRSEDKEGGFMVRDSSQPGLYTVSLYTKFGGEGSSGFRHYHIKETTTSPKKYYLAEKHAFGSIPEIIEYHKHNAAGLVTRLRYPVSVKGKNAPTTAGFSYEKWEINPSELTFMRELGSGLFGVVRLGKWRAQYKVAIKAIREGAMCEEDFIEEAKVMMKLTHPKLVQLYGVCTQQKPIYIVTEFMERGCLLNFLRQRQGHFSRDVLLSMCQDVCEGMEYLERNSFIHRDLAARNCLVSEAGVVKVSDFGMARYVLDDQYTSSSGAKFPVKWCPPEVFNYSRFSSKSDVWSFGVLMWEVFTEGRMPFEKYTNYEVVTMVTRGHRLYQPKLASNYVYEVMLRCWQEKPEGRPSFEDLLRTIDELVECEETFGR

[28] = target: Tyrosine-protein kinase Fyn (Homo sapiens, UniProt P06241); assay: Inhibition of FYN (unknown origin)
Homo sapiens [29] = species: Homo sapiens; assay: Selectivity ratio of IC50 for SRC (unknown origin) to IC50 for BTK (unknown origin)
Homo sapiens [30] = species: Homo sapiens; assay: Selectivity ratio of IC50 for ERBB4 (unknown origin) to IC50 for BTK (unknown origin)
[31] = target: Receptor tyrosine-protein kinase erbB-4 (Homo sapiens, UniProt Q15303); assay: Inhibition of ERBB4 (unknown origin)
Homo sapiens [32] = species: Homo sapiens; assay: Selectivity ratio of IC50 for LYNB (unknown origin) to IC50 for BTK (unknown origin)
Homo sapiens [33] = species: Homo sapiens; assay: Selectivity ratio of IC50 for SRMS (unknown origin) to IC50 for BTK (unknown origin)
Homo sapiens [34] = species: Homo sapiens; assay: Selectivity ratio of IC50 for FGR (unknown origin) to IC50 for BTK (unknown origin)
[35] = target: Tyrosine-protein kinase Yes (Homo sapiens, UniProt P07947); assay: Inhibition of YES1 (unknown origin)
Homo sapiens [36] = species: Homo sapiens; assay: Selectivity ratio of IC50 for YES1 (unknown origin) to IC50 for BTK (unknown origin)
Homo sapiens [37] = species: Homo sapiens; assay: Selectivity ratio of IC50 for PTK6 (unknown origin) to IC50 for BTK (unknown origin)
[38] = Total clearance in dog plasma at 2 mg/kg administered as cassette dose; type: ADME, organism-based, Canis lupus familiaris

T1 sequence (Q06187 whole entry): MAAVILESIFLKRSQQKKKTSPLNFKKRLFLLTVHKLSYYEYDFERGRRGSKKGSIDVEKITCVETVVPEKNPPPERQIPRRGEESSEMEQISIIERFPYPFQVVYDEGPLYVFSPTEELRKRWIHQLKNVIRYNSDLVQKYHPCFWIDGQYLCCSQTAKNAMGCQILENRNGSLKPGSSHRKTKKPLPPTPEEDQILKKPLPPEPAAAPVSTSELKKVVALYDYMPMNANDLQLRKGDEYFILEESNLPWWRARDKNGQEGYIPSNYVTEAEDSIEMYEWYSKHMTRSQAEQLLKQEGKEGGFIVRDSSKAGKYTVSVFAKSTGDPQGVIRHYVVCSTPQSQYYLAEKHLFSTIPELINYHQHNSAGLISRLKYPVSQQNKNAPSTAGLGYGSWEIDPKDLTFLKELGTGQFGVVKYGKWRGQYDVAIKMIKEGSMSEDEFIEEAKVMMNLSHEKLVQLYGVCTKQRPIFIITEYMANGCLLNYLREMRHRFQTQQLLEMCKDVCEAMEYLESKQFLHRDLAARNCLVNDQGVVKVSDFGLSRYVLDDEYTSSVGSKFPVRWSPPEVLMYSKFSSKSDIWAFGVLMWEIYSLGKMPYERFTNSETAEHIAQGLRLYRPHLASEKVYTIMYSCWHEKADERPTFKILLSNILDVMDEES
Chain of Receptor tyrosine-protein kinase erbB-4 (Q15303 whole entry): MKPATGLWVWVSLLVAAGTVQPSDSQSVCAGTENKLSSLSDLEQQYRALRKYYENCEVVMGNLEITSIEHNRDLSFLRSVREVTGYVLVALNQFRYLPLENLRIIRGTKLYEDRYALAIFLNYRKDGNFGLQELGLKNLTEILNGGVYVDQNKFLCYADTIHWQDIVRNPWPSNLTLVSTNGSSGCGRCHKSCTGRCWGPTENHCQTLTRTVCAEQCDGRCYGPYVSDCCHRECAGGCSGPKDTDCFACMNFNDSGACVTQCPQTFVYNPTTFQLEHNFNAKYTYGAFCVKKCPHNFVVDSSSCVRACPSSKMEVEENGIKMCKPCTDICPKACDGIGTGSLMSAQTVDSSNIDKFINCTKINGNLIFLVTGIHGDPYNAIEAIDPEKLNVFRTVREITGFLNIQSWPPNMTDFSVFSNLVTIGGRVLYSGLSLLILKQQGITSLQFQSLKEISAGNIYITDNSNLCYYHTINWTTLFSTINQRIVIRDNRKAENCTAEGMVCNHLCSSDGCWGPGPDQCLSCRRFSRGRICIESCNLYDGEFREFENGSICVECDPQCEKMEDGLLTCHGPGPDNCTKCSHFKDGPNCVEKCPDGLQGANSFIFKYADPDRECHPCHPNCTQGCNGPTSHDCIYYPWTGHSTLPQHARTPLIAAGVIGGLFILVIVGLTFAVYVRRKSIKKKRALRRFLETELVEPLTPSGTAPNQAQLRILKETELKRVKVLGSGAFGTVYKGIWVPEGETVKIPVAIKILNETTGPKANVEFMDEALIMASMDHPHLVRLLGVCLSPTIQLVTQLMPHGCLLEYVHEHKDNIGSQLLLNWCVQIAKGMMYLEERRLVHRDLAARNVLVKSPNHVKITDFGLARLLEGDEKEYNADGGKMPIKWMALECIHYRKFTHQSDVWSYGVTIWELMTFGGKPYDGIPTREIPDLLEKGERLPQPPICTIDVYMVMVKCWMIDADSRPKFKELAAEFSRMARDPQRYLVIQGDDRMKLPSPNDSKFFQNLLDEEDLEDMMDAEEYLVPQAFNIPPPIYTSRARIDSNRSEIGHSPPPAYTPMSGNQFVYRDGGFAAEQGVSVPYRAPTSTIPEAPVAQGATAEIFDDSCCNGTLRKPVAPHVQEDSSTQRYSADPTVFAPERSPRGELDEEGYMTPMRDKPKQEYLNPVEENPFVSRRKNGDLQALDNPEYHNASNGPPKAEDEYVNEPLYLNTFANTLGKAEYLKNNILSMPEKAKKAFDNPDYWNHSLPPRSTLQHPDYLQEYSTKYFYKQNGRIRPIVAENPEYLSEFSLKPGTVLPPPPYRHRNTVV
Chain of Protein-tyrosine kinase 6 (Q13882 whole entry): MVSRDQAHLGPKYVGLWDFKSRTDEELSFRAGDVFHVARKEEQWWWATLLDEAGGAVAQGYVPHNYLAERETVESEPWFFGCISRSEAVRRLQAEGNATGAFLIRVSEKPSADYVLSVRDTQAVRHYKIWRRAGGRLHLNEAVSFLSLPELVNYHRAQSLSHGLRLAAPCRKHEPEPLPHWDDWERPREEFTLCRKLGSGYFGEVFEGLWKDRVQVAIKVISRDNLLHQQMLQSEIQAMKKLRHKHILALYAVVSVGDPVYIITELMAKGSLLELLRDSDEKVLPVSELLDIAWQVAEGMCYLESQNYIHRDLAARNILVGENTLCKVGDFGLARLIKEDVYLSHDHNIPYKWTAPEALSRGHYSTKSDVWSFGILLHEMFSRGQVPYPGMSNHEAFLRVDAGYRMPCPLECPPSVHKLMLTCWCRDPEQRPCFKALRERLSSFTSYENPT
Chain of Tyrosine-protein kinase Fyn (P06241 whole entry): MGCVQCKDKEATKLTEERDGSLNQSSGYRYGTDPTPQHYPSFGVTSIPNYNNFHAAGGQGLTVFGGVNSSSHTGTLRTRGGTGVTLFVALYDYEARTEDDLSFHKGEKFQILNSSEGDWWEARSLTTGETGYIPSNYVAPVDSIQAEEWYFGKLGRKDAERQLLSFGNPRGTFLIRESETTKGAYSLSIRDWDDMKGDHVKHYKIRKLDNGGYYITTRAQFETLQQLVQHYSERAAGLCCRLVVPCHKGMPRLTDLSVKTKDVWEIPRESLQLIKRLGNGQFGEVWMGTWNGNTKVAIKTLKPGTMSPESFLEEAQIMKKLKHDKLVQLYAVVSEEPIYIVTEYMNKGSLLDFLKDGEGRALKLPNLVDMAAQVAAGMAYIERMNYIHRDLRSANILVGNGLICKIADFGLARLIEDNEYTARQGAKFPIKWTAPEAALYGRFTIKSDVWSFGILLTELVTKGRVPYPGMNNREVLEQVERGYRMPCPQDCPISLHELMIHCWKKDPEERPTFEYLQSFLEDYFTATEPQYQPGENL
Chain of Voltage-gated inwardly rectifying potassium channel KCNH2 (Q12809 whole entry): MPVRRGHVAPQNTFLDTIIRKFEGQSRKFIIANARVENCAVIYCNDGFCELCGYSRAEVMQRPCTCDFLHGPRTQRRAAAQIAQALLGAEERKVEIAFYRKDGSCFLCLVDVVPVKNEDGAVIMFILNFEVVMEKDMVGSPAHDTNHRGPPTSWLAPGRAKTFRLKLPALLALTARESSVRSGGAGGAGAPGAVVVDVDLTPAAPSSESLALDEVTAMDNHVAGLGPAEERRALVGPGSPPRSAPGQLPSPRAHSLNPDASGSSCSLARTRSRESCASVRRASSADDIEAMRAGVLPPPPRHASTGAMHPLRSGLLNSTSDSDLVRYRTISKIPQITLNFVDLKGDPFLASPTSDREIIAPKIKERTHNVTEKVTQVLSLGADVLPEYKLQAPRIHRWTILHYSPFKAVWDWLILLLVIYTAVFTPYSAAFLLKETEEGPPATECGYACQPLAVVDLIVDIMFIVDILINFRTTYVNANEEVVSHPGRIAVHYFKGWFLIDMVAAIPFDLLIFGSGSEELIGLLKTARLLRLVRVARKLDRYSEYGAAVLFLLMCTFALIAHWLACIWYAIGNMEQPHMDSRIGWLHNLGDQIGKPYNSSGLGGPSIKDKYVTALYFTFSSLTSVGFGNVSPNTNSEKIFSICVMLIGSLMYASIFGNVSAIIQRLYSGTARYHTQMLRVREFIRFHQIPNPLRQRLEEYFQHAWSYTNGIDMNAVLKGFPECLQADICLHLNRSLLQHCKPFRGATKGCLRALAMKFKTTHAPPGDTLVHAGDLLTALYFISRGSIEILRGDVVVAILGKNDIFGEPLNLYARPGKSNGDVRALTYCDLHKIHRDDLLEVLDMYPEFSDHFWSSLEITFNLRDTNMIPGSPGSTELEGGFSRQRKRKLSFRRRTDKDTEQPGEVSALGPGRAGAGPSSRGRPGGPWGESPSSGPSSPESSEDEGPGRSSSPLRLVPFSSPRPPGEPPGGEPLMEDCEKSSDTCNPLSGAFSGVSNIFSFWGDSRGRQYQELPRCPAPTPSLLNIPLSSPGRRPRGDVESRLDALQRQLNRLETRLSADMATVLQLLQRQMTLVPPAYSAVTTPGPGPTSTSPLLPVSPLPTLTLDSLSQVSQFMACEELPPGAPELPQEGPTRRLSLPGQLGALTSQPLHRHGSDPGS
Chain of Tyrosine-protein kinase Yes (P07947 whole entry): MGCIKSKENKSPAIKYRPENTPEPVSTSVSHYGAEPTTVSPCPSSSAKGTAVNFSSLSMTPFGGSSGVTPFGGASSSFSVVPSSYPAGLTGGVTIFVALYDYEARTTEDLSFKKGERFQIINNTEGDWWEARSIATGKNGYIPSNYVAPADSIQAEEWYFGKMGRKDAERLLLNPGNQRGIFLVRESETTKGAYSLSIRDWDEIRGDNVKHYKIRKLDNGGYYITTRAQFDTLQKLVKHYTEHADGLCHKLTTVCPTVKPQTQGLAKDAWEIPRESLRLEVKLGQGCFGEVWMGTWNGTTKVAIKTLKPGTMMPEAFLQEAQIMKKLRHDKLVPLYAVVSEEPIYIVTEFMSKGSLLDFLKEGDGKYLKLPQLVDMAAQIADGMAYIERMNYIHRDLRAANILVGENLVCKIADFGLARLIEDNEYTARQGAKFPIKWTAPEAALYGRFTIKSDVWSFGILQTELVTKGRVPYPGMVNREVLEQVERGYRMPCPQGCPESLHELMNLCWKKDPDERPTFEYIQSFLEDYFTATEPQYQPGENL

COCC(=O)N1CCO[C@@H](c2nc(-c3ccc(C(=O)Nc4cc(C(F)(F)F)ccn4)cc3F)c3c(N)nccn23)C1
half-life [1]: 2.5 h | pIC50 [2]: 7.55 | pIC50 [3]: 7.85 | pIC50 [4]: 6.20 | Ratio IC50 (Homo sapiens [5]): 691 | pIC50 [6]: 6.91 | pIC50 [7]: 7.12 | pIC50 [8]: 7.11 | bioavailability [9]: 42% | clearance [10]: 8.2 mL/min/kg | pIC50 [11]: 4.62 | pIC50 [12]: 7.11 | Ratio IC50 (Homo sapiens [13]): 2230 | half-life [14]: 0.8 h | Ratio IC50 (Homo sapiens [15]): 626 | pIC50 [16]: 6.59 | pIC50 [17]: 6.48 | Ratio IC50 (Homo sapiens [18]): 212 | Ratio IC50 (Homo sapiens [19]): 578 | pIC50 [20]: 6.67 | Ratio IC50 (Homo sapiens [21]): 1540 | pIC50 [22]: 7.16 | Ratio IC50 (Homo sapiens [23]): 75 | pIC50 [24]: 6.57 | pIC50 [25]: 9.40 to 9.43 | Ratio IC50 (Homo sapiens [26]): 895 | pIC50 [27]: 6.63 | pIC50 [28]: 6.24 | Ratio IC50 (Homo sapiens [29]): 333 | Ratio IC50 (Homo sapiens [30]): 457 | pIC50 [31]: 6.77 | Ratio IC50 (Homo sapiens [32]): 723 | Ratio IC50 (Homo sapiens [33]): 205 | Ratio IC50 (Homo sapiens [34]): 187 | pIC50 [35]: 7.14 | Ratio IC50 (Homo sapiens [36]): 198 | Ratio IC50 (Homo sapiens [37]): 209 | clearance [38]: 13.8 mL/min/kg
